Test results as given in article PMC13588620, “Linear antibody epitope prediction using AlphaFold2” (eLife, 2026).
Entries after “also recorded” stand apart in the source; their conditions may differ.

Tested on: mBG17 binding to SARS-CoV-2 nucleocapsid protein
Experiment: Alanine-scan peptide competition ELISA with serial peptide dilution
Design: species or system mouse
Conditions: 4-fold serial dilution of peptide from 40 μg to ~2.5 ng; absorbance at 450 nm; n=3; percentage of binding from no-peptide control

Sequence | competition of mBG17 binding to nucleocapsid protein by alanine mutant peptides, compared with the WT peptide
ADFSKQLQQS [D1A] | no change in competition; also recorded: less disruptive to binding
DDASKQLQQS [F3A] | strong reductions in competition
DDFSKALQQS [Q6A] | minor reductions in competition; also recorded: less disruptive to binding
DDFSKQAQQS [L7A] | strong reductions in competition
DDFSKQLAQS [Q8A] | strong reductions in competition
DDFSKQLQQS [a.a. 401–410] | strong competition
